In patent US9758492B2, “IDO inhibitors” (Bristol-Myers Squibb Company, priority 2013, dated 2017):

Target: IDO (Homo sapiens, UniProt P14902)
Assay: LLE_IDO_ABS_DR (IDO assay)

Sequence of IDO (P14902 whole entry): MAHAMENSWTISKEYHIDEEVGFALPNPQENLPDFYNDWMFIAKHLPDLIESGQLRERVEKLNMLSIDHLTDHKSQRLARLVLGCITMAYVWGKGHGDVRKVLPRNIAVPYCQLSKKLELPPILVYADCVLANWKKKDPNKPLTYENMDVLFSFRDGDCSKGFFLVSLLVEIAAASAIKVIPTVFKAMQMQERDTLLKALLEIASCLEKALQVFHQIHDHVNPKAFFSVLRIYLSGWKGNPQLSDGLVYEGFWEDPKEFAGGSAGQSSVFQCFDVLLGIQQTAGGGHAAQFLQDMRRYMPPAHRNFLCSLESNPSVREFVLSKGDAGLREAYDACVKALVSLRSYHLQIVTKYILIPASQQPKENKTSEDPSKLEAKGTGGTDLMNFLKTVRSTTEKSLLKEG

Row | SMILES | IC50 [nM]
1 | Cc1ccc(NC(=O)Nc2cc(-c3ccccc3C(=O)O)ccc2N(C)c2ccccc2C(C)(C)C)cc1 [Example 481] | 1840
2 | CCCN(c1ccc(-c2ccccc2C(=O)O)cc1NC(=O)Nc1ccc(C)cc1)C1CCCC1 [Example 165, 4′-(cyclopentyl(propyl)amino)-3′-(3-p-tolylureido)biphenyl-2-carboxylic acid] | 10
3 | Cc1ccc(NC(=O)Nc2cc(-c3ccccc3C(=O)O)ccc2N(C)C2CCC(F)(F)CC2)cc1 [Example 104, 4′-((4,4-difluoro-cyclohexyl) (methyl)amino)-3′-(3-p-tolylureido)biphenyl-2-carboxylic acid] | 100
4 | CCN(CC(C)(C)C)c1ccc(-c2ccccc2C(=O)O)cc1NC(=O)Nc1ccc(C)cc1 [Example 111, 4′-(ethyl(neopentyl)amino)-3′-(3-p-tolylureido)biphenyl-2-carboxylic acid] | 210
5 | [2H]C([2H])(C(C)C)N(c1ccc(-c2cc(F)ccc2C(=O)O)cc1NC(=O)Nc1ccccc1F)C1CCCCC1 [Example 34, 4′-(Cyclohexyl(1,1-dideutero-2-methylpropyl)amino)-5-fluoro-3′-(3-(2-fluorophenyl)ureido)biphenyl-2-carboxylic acid] | 4.01
6 | CCN(CCOC)c1ccc(-c2ccccc2-c2nnn[nH]2)cc1NC(=O)Nc1ccc(C)cc1 [Example 73, 1-(4-(ethyl(2-methoxyethyl)amino)-2′-(1H-tetrazol-5-yl)biphenyl-3-yl)-3-p-tolylurea] | 150
7 | CC(C)CN(CCC1CC1)c1ccc(-c2cc(F)ccc2C(=O)O)cc1NC(=O)Nc1ccccc1F [Example 135, 4′-((2-cyclopropylethyl) (isobutyl)amino)-5-fluoro-3′-(3-(2-fluorophenyl)ureido)biphenyl-2-carboxylic acid] | 20
8 | CC(C)CN(CC(C)C)c1ccc(-c2ccccc2-c2nnn[nH]2)cc1NC(=O)NCC1CC1 [Example 142, 1-(cyclopropylmethyl)-3-(4-(diisobutylamino)-2′-(1H-tetrazol-5-yl)biphenyl-3-yl)urea] | 950
9 | Cc1ccc(NC(=O)Nc2cc(-c3ccccc3C(=O)O)ccc2N(CC(C)C)C2CCCCC2)cc1 [Example 119, 4′-(cyclohexyl (isobutyl)amino)-3′-(3-p-tolylureido)biphenyl-2-carboxylic acid] | 5.19
10 | CCCN(Cc1ccccc1)c1ccc(-c2ccccc2-c2nnn[nH]2)cc1NC(=O)Nc1ccc(C)cc1 [Example 185, 1-(4-(benzyl(propyl)amino)-2′-(1H-tetrazol-5-yl)-[1,1′-biphenyl]-3-yl)-3-(p-tolyl)urea] | 2.63
11 | Cc1ccc(NC(=O)Nc2cc(-c3cc(F)ccc3C(=O)O)ccc2N(CCC(F)(F)F)Cc2cccc(Cl)c2)cc1 [Example 12, 4′-((3-Chlorobenzyl)(3,3,3-trifluoropropyl)amino)-5-fluoro-3′-(3-(p-tolyl)ureido)-[1,1′-biphenyl]-2-carboxylic acid] | 220
12 | Cc1ccc(NC(=O)Nc2cc(-c3ccccc3C(=O)O)ccc2N(CC(C)C)CC(F)(F)F)cc1 [Example 474] | 90
13 | CC(C)CN(CC(C)C)c1ccc(-c2ccccc2-c2nnn[nH]2)cc1NC(=O)Nc1cccc2c1CCC2 [Example 276, 1-(2,3-dihydro-1H-inden-4-yl)-3-(4-(diisobutylamino)-2′-(1H-tetrazol-5-yl)-[1,1′-biphenyl]-3-yl)urea] | 780
14 | Cc1ccc(NC(=O)Nc2cc(-c3ccccc3-c3nnn[nH]3)ccc2N(Cc2ccccc2)CC(F)F)cc1 [Example 22, 1-(4-(Benzyl(2,2-difluoroethyl)amino)-2′-(1H-tetrazol-5-yl)-[1,1′-biphenyl]-3-yl)-3-(p-tolyl)urea] | 30
15 | Cc1ccc(NC(=O)Nc2cc(-c3cc(F)ccc3C(=O)O)ccc2N(CCC(F)(F)F)Cc2ccc(Cl)cc2)cc1 [Example 15, 4′-((4-Chlorobenzyl)(3,3,3-trifluoropropyl)amino)-5-fluoro-3′-(3-(p-tolyl)ureido)-[1,1′-biphenyl]-2-carboxylic acid] | 90
16 | Cc1ccc(NC(=O)Nc2cc(-c3ccccc3C(=O)O)ccc2N(CCC(F)(F)F)Cc2ccccc2)cc1 [Example 8, 4′-(Benzyl(3,3,3-trifluoropropyl)amino)-3′-(3-(p-tolyl)ureido)-[1,1′-biphenyl]-2-carboxylic acid] | 180
17 | CC(C)CN(CC(C)C)c1ccc(-c2ccccc2-c2nnn[nH]2)cc1NC(=O)NC1CCCCC1 [Example 140, 1-cyclohexyl-3-(4-(diisobutylamino)-2′-(1H-tetrazol-5-yl)biphenyl-3-yl)urea] | 2960
18 | CC(C)CN(CCC(C)C(F)(F)F)c1ccc(-c2ccccc2-c2nnn[nH]2)cc1NC(=O)Nc1ccccc1F (stereo not shown) [Example 201, 1-(2-fluorophenyl)-3-(4-(isobutyl(4,4,4-trifluoro-3-methylbutyl)amino)-2′-(1H-tetrazol-5-yl)-[1,1′-biphenyl]-3-yl)urea] | 4.46
19 | Cc1ccc(NC(=O)Nc2cc(-c3c(C(=O)O)cccc3N(C)C)ccc2N(CC(C)C)CC(C)C)cc1 [Example 101, 4′-(diisobutylamino)-6-(dimethylamino)-3′-(3-p-tolylureido) biphenyl-2-carboxylic acid] | 10

Row | SMILES | IC50 [nM]
20 | C#CCOc1ccc(NC(=O)Nc2cc(-c3ccccc3-c3nnn[nH]3)ccc2N(CC(C)C)CC(C)C)cc1 [Example 244] | 9.3
21 | COc1ccc(C(=O)O)c(-c2ccc(N(CC(C)C)CC(C)C)c(NC(=O)Nc3ccc(F)cc3F)c2)c1 [Example 160, 3′-(3-(2,4-difluorophenyl)ureido)-4′-(diisobutylamino)-5-methoxybiphenyl-2-carboxylic acid] | 190
22 | Cc1ccc(NC(=O)Nc2cc(-c3cc(F)ccc3C(=O)O)ccc2N(C)C2CCC(F)(F)CC2)cc1 [Example 105, 4′-((4,4-difluoro-cyclohexyl) (methyl)amino)-5-fluoro-3′-(3-p-tolylureido) biphenyl-2-carboxylic acid] | 190
23 | Cc1ccc(NC(=O)Nc2cc(-c3ccccc3-c3nnn[nH]3)ccc2N(CCC2CC2)CC(C)C)cc1 [Example 129, 1-(4-((2-cyclopropylethyl) (isobutyl)amino)-2′-(1H-tetrazol-5-yl)biphenyl-3-yl)-3-p-tolylurea] | 9.53
24 | CCN(CC(C)(C)C)c1ccc(-c2cc(F)ccc2C(=O)O)cc1NC(=O)Nc1ccccc1F [Example 115, 4′-(ethyl(neopentyl)amino)-5-fluoro-3′-(3-(2-fluorophenyl)ureido) biphenyl-2-carboxylic acid] | 350
25 | Cc1ccc(NC(=O)Nc2cc(-c3cc(F)ccc3C(=O)O)ccc2N(CC(C)C)C2CCCC2)cc1 [Example 171, 4′-(cyclopentyl(isobutyl)amino)-5-fluoro-3′-(3-p-tolylureido)biphenyl-2-carboxylic acid] | 20
26 | CNC(=O)c1ccccc1NC(=O)Nc1cc(-c2ccccc2-c2nnn[nH]2)ccc1N(CC(C)C)CC(C)C [Example 248, 2-(3-(4-(diisobutylamino)-2′-(1H-tetrazol-5-yl)-[1,1′-biphenyl]-3-yl)ureido)-N-methylbenzamide] | 5070
27 | CCCN(c1ccc(-c2cc(F)ccc2C(=O)O)cc1NC(=O)Nc1ccccc1F)C1CCCC1 [Example 167, 4′-(cyclopentyl(propyl)amino)-5-fluoro-3′-(3-(2-fluorophenyl)ureido)biphenyl-2-carboxylic acid] | 40
28 | Cc1ccc(NC(=O)Nc2cc(-c3ccccc3-c3nnn[nH]3)ccc2N(CCC(F)(F)F)CC(C)C)cc1 [Example 199, 1-(4-(isobutyl(3,3,3-trifluoropropyl)amino)-2′-(1H-tetrazol-5-yl)-[1,1′-biphenyl]-3-yl)-3-(p-tolyl)urea] | 60
29 | CC(C)CN(c1ccc(-c2ccc(Cl)cc2C(=O)O)cc1NC(=O)Nc1ccccc1F)C1CCCCC1 [Example 123, 4-chloro-4′-(cyclohexyl(isobutyl)amino)-3′-(3-(2-fluorophenyl)ureido) biphenyl-2-carboxylic acid] | 20
30 | Cc1ccc(NC(=O)Nc2c(N(CC(C)C)CC(C)C)ccc(-c3ccccc3-c3nnn[nH]3)c2F)cc1 [Example 25, 1-(4-(Diisobutylamino)-2-fluoro-2′-(1H-tetrazol-5-yl)-[1,1′-biphenyl]-3-yl)-3-(p-tolyl)urea] | 30
31 | Cc1ccc(NC(=O)Nc2cc(-c3ccccc3-c3nnn[nH]3)ccc2N(C)CC(C)C)cc1 [Example 179, 1-(4-(isobutyl(methyl)amino)-2′-(1H-tetrazol-5-yl)-[1,1′-biphenyl]-3-yl)-3-(p-tolyl)urea] | 50
32 | O=C(Nc1ccc(C2CC2)cc1)Nc1cc(-c2ccccc2-c2nnn[nH]2)ccc1N(CCc1ccccc1)CCC(F)(F)F [Example 298, 1-(4-cyclopropylphenyl)-3-(4-(phenethyl(3,3,3-trifluoropropyl)amino)-2′-(1H-tetrazol-5-yl)-[1,1′-biphenyl]-3-yl)urea] | 80
33 | CN(c1ccc(-c2ccccc2C(=O)O)cc1NC(=O)Nc1ccccc1F)c1ccccc1C(C)(C)C [Example 480] | 1840
34 | Cc1ccc(NC(=O)Nc2cc(-c3ccccc3-c3nnn[nH]3)ccc2N(CCC(C)C(F)(F)F)C2CCCCC2)cc1 (stereo not shown) [Example 190, 1-(4-(cyclohexyl(4,4,4-trifluoro-3-methylbutyl)amino)-2′-(1H-tetrazol-5-yl)-[1,1′-biphenyl]-3-yl)-3-(p-tolyl)urea] | 80
35 | CC(C)CN(CC(C)C)c1ccc(-c2ccccc2-c2nnn[nH]2)cc1NC(=O)Nc1c(F)cc(F)cc1F [Example 282, 1-(4-(diisobutylamino)-2′-(1H-tetrazol-5-yl)-[1,1′-biphenyl]-3-yl)-3-(2,4,6-trifluorophenyl)urea] | 8.2
36 | CC(C)CN(CC(C)C)c1ccc(-c2ccccc2-c2nnn[nH]2)cc1NC(=O)Nc1ccccc1N1CCCCC1 [Example 270, 2-(4-(diisobutylamino)-2′-(1H-tetrazol-5-yl)-[1,1′-biphenyl]-3-yl)-3-(2-(piperidin-1-yl)phenyl)urea] | 1830
37 | O=C(Nc1ccc(C2CC2)cc1)Nc1cc(-c2ccccc2-c2nnn[nH]2)ccc1N(CCC(F)(F)F)Cc1ccccn1 [Example 304, 1-(4-cyclopropylphenyl)-3-(4-((pyridin-2-ylmethyl)(3,3,3-trifluoropropyl)amino)-2′-(1H-tetrazol-5-yl)-[1,1′-biphenyl]-3-yl)urea] | 70
